From patent publication US20260285831A1, “LACTAM DERIVATIVES FOR INHIBITING NLRP3 AND USES THEREOF” (Ventus Therapeutics U.S., Inc., priority 2023, published 2026)
Read-outs that look alike come from different tables or passages of the source.

Target: T1, human NLRP3 (Homo sapiens, UniProt Q96P20)
T1 construct: Human whole blood is drawn from healthy volunteers after obtaining written informed consent; from tissue; host or cells: human whole blood from healthy volunteers (heparin lithium tubes)
Assay: Human whole blood (hWB) NLRP3 assay (IL-1β release after LPS priming and ATP activation)
Format: cell-based
Settings: for IC50: human whole blood; for hWB NLRP3 inhibitory activity compared to the (S)-isomer: isomer comparison, in words; for fold improvement in activity compared to Compound 3 (hWB IL-1β IC50): additional ring N atom versus Compound 3 with lactam ring N as sole N ring atom, Table E
Procedure: Human Whole Blood (hWB) NLRP3 Assay
Human whole blood is drawn from healthy volunteers after obtaining written informed consent. Heparin lithium coated tubes are used to collect blood from volunteers. Blood samples are distributed on 96 well plates using 90 μl per well.
Priming procedure: Priming is performed by adding 5 μl of LPS (026:B6; Sigma L-2654) at a final concentration of 1 μg/ml for 4.5 hours in a humidified incubator with 37° C., 5% CO2. Thirty minutes prior to NLRP3 activation, 5 μl of a 20× compound solution or vehicle (2% dimethylsulfoxide (DMSO)) is added to each well and plates were incubated on a shaker (450 rpm) in a humidified incubator with 37° C., 5% CO2.
Alternative priming procedure: Thirty minutes prior to LPS priming, 5 μl of a 20× compound solution or vehicle (2% dimethylsulfoxide (DMSO)) is added to each well and plates were incubated on a shaker (450 rpm) in a humidified incubator with 37° C., 5% CO2. Priming is performed by adding 5 μl of LPS (026:B6; Sigma L-2654) at a final concentration of 1 μg/ml for 5 hours in a humidified incubator with 37° C., 5% CO2.
Activation is then performed by adding 3.3 μl of a 31×ATP solution per well. At the end of the 30 minutes stimulation, the plates are centrifuged (800 g, 10 min, room temperature) and the plasma from each well is frozen at −80° C. […] levels in the supernatant were analyzed using a mesoscale discovery assay (MSD K151TUK) according to the manufacturers' instructions.
There is no detectable difference in assay IC50 results using the priming procedure versus the alternative priming procedure.
Data provided in Table C, below. hWB […] Assay: A represents an IC50 value <0.3 μM; B represents an IC50 value ≥0.3 μM and <0.5 μM; C represents an IC50 value ≥0.5 μM and <1.0 μM; D represents an IC50 value ≥1.0 μM and <10 μM; E represents an IC50 value ≥10 μM. Dashed (--) lines indicate no data available.

[1] = LPS 1 μg/ml priming, ATP activation, Table C, class symbols, read-out: hWB IL-1β IC50
[2] = numeric values of Tables D and E, read-out: hWB IL-1β IC50

T1 sequence (Q96P20 whole entry): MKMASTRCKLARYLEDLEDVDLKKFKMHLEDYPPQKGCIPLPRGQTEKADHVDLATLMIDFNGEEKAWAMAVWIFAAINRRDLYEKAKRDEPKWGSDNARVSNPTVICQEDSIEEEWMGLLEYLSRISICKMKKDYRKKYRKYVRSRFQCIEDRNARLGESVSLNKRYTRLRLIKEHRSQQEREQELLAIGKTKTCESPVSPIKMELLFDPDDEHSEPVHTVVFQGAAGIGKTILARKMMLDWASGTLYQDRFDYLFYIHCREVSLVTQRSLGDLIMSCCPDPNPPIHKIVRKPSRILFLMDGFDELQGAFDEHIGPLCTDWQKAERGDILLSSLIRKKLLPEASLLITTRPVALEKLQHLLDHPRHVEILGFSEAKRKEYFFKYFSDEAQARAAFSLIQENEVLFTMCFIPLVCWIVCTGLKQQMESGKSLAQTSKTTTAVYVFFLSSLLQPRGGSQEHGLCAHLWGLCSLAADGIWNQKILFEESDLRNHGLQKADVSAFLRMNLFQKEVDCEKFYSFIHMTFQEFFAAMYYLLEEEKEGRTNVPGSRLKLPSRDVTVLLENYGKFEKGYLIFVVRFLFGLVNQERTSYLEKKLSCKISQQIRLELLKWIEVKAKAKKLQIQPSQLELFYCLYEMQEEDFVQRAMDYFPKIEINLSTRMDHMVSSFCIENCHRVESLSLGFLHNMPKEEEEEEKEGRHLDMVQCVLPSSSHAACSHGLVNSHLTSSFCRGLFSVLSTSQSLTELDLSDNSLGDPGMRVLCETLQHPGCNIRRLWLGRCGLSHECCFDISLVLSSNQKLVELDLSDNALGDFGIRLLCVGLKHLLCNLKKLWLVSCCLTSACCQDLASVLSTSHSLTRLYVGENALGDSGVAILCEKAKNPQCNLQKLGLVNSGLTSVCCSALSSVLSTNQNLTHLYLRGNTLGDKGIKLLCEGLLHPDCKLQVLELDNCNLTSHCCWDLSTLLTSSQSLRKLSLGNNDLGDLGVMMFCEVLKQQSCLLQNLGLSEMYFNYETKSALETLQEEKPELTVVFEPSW

| IC50 [1] [nM] | Structure (SMILES) | further results |
| --- | --- | --- |
| 300 to 500 | C[C@@H](CCC(=O)O)N1CC[C@@H](N2C(=O)C(C)(C)c3c(F)c(C4CC4)cc(F)c32)C1=O (single isomer, unassigned) [Compound 24A*] |  |
| < 300 | CC1(C)C(=O)N([C@@H]2CCN(CCCC(=O)O)C2=O)c2c(F)cc(C3CC3)cc21 (stereo in doubt) [Compound 22A*, (R)-4-(3-(5-cyclopropyl-7-fluoro-3,3-dimethyl-2-oxoindolin-1-yl)-2-oxopyrrolidin-1-yl)butanoic acid] | hWB NLRP3 inhibitory activity compared to the (S)-isomer: more active isomer |
| 1000 to 10000 | CC1(C)C(=O)N([C@@H]2CCN(CCCC(=O)O)C2=O)c2c(F)cc(Cl)c(F)c21 (stereo in doubt) [Compound 23A, (R)-4-(3-(5-chloro-4,7-difluoro-3,3-dimethyl-2-oxoindolin-1-yl)-2-oxopyrrolidin-1-yl)butanoic acid] |  |
| 1000 to 10000 | CC1(C)C(=O)N(c2cccn(CCCC(=O)O)c2=O)c2c(F)cc(C3CC3)c(F)c21 [Compound 3, 4-(3-(5-cyclopropyl-4,7-difluoro-3,3-dimethyl-2-oxoindolin-1-yl)-2-oxopyridin-1(2H)-yl)butanoic acid] | IC50 [2]: 1900 nM |
| 1000 to 10000 | CC1(C)C(=O)N([C@@H]2CCN(CCCC(=O)O)C2=O)c2ccc(C3CC3)c(F)c21 (stereo in doubt) [Compound 18A*, (R)-4-(3-(5-cyclopropyl-4-fluoro-3,3-dimethyl-2-oxoindolin-1-yl)-2-oxopyrrolidin-1-yl)butanoic acid] | fold more active than 18B* (hWB IL-1β IC50) (R-isomer versus S-isomer 18B*, Table D): > 147 fold; IC50 [2]: 3400 nM |
| ≥ 10000 | CC1(C)C(=O)N([C@@H]2CC(C)(C)N(CCCC(=O)O)C2=O)c2c(F)cc(C3CC3)c(F)c21 (single isomer, unassigned) [Compound 25A] |  |
| < 300 | CC1(C)C(=O)N([C@@H]2CCN(CCCC(=O)O)C2=O)c2c(F)cc(C(F)(F)F)c(F)c21 (stereo in doubt) [Compound 19A*, (R)-4-(3-(4,7-difluoro-3,3-dimethyl-2-oxo-5-(trifluoromethyl)indolin-1-yl)-2-oxopyrrolidin-1-yl)butanoic acid] | hWB NLRP3 inhibitory activity compared to the (S)-isomer: more active isomer |
| ≥ 10000 | CC1(C)C(=O)N([C@H]2CCN(CCCC(=O)O)C2=O)c2ccc(C3CC3)c(F)c21 (stereo in doubt) [Compound 18B*, (S)-4-(3-(5-cyclopropyl-4-fluoro-3,3-dimethyl-2-oxoindolin-1-yl)-2-oxopyrrolidin-1-yl)butanoic acid] | IC50 (class symbol printed beside the numeric value in Tables D and E, read-out: hWB IL-1β IC50 activity class): ≥ 10000 nM; IC50 [2]: > 500000 nM |
| 1000 to 10000 | Cc1ccc(N2C(=O)C(C)(C)c3c(F)c(C4CC4)cc(F)c32)c(=O)n1CCCC(=O)O [Compound 6, 4-(3-(5-cyclopropyl-4,7-difluoro-3,3-dimethyl-2-oxoindolin-1-yl)-6-methyl-2-oxopyridin-1(2H)-yl)butanoic acid] |  |
| 1000 to 10000 | CC1(C)C(=O)N(c2cc(C3CC3)cn(CCCC(=O)O)c2=O)c2c(F)cc(C3CC3)c(F)c21 [Compound 14, 4-(5-cyclopropyl-3-(5-cyclopropyl-4,7-difluoro-3,3-dimethyl-2-oxoindolin-1-yl)-2-oxopyridin-1(2H)-yl)butanoic acid] |  |
| 1000 to 10000 | CC1(C)C(=O)N(c2nccn(CCCC(=O)O)c2=O)c2ccc(C3CC3)c(F)c21 [Compound 21, 4-(3-(5-cyclopropyl-4-fluoro-3,3-dimethyl-2-oxoindolin-1-yl)-2-oxopyrazin-1(2H)-yl)butanoic acid] |  |
| ≥ 10000 | C[C@@H](CCC(=O)O)N1CC[C@H](N2C(=O)C(C)(C)c3c(F)c(C4CC4)cc(F)c32)C1=O (single isomer, unassigned) [Compound 24C*] |  |
| ≥ 10000 | CC1(C)C(=O)N([C@H]2CC(C)(C)N(CCCC(=O)O)C2=O)c2c(F)cc(C3CC3)c(F)c21 (single isomer, unassigned) [Compound 25B] |  |
| 300 to 500 | C[C@@H](CC(=O)O)CN1CC[C@@H](N2C(=O)C(C)(C)c3c(F)c(C4CC4)cc(F)c32)C1=O (single isomer, unassigned) [Compound 26A*] |  |
| ≥ 10000 | C[C@H](CC(=O)O)CN1CC[C@H](N2C(=O)C(C)(C)c3c(F)c(C4CC4)cc(F)c32)C1=O (single isomer, unassigned) [Compound 26D*] |  |
| 500 to 1000 | CC1(C)C(=O)N(c2ccnn(CCCC(=O)O)c2=O)c2c(F)cc(C3CC3)c(F)c21 [Compound 11, 4-(5-(5-cyclopropyl-4,7-difluoro-3,3-dimethyl-2-oxoindolin-1-yl)-6-oxopyridazin-1(6H)-yl)butanoic acid] | fold improvement in activity compared to Compound 3 (hWB IL-1β IC50): 3-5 fold; IC50 [2]: 610 nM |
| < 300 | CC1(C)C(=O)N([C@@H]2CCN(CCCC(=O)O)C2=O)c2c(F)cc(C3CC3)c(F)c21 [Compound 16A, (R)-4-(3-(5-cyclopropyl-4,7-difluoro-3,3-dimethyl-2-oxoindolin-1-yl)-2-oxopyrrolidin-1-yl)butanoic acid] |  |

Further lines, the compound ahead of its results:

| Structure (SMILES) | IC50 [1] [nM] | further results |
| --- | --- | --- |
| CC1(C)C(=O)N(c2nccn([C@@H]3CCC[C@H]3CC(=O)O)c2=O)c2c(F)cc(C3CC3)c(F)c21 (single isomer, unassigned) [Compound 20D*] | 500 to 1000 |  |
| CC1(C)C(=O)N(c2nccn(CCCC(=O)O)c2=O)c2c(F)cc(C3CC3)c(F)c21 [Compound 10, 4-(3-(5-cyclopropyl-4,7-difluoro-3,3-dimethyl-2-oxoindolin-1-yl)-2-oxopyrazin-1(2H)-yl)butanoic acid] | 300 to 500 | fold improvement in activity compared to Compound 3 (hWB IL-1β IC50): 3-5 fold; IC50 [2]: 390 nM |
| CC1(C)C(=O)N(c2cccn(CCCC(=O)O)c2=O)c2c(O)cc(Cl)cc21 [Compound 7, 4-(3-(5-chloro-7-hydroxy-3,3-dimethyl-2-oxoindolin-1-yl)-2-oxopyridin-1(2H)-yl)butanoic acid] | 1000 to 10000 |  |
| CC1(C)C(=O)N(c2cncn(CCCC(=O)O)c2=O)c2c(F)cc(C3CC3)c(F)c21 [Compound 8, 4-(5-(5-cyclopropyl-4,7-difluoro-3,3-dimethyl-2-oxoindolin-1-yl)-6-oxopyrimidin-1(6H)-yl)butanoic acid] | 300 to 500 | fold improvement in activity compared to Compound 3 (hWB IL-1β IC50): 3-5 fold; IC50 [2]: 470 nM |
| CC1(C)C(=O)N(c2cc(-c3ccccc3)cn(CCCC(=O)O)c2=O)c2c(F)cc(C3CC3)c(F)c21 [Compound 13, 4-(3-(5-cyclopropyl-4,7-difluoro-3,3-dimethyl-2-oxoindolin-1-yl)-2-oxo-5-phenylpyridin-1(2H)-yl)butanoic acid] | ≥ 10000 |  |
| CC1(C)C(=O)N(c2c(=O)n(CCCC(=O)O)cc3ccccc23)c2c(F)cc(C3CC3)c(F)c21 [Compound 15, 4-(4-(5-cyclopropyl-4,7-difluoro-3,3-dimethyl-2-oxoindolin-1-yl)-3-oxoisoquinolin-2(3H)-yl)butanoic acid] | ≥ 10000 |  |
| CC1(C)C(=O)N(c2cccn(CCCC(=O)O)c2=O)c2c(F)cc(C3CC3)cc21 [Compound 2, 4-(3-(5-cyclopropyl-7-fluoro-3,3-dimethyl-2-oxoindolin-1-yl)-2-oxopyridin-1(2H)-yl)butanoic acid] | 1000 to 10000 |  |
| Cc1cc(N2C(=O)C(C)(C)c3c(F)c(C4CC4)cc(F)c32)c(=O)n(CCCC(=O)O)c1 [Compound 5, 4-(3-(5-cyclopropyl-4,7-difluoro-3,3-dimethyl-2-oxoindolin-1-yl)-5-methyl-2-oxopyridin-1(2H)-yl)butanoic acid] | 1000 to 10000 |  |
| Cc1ccn(CCCC(=O)O)c(=O)c1N1C(=O)C(C)(C)c2c(F)c(C3CC3)cc(F)c21 (single isomer, unassigned) [Compound 4A*, (Sa)-4-(3-(5-cyclopropyl-4,7-difluoro-3,3-dimethyl-2-oxoindolin-1-yl)-4-methyl-2-oxopyridin-1(2H)-yl)butanoic acid] | ≥ 10000 |  |
| CC1(C)C(=O)N(c2cc3ccccc3n(CCCC(=O)O)c2=O)c2c(F)cc(C3CC3)c(F)c21 [Compound 9, 4-(3-(5-cyclopropyl-4,7-difluoro-3,3-dimethyl-2-oxoindolin-1-yl)-2-oxoquinolin-1(2H)-yl)butanoic acid] | 1000 to 10000 |  |
| CC1(C)C(=O)N(c2nccn(CCCC(=O)O)c2=O)c2c(F)cc(C(F)(F)F)c(F)c21 [Compound 17, 4-(3-(4,7-difluoro-3,3-dimethyl-2-oxo-5-(trifluoromethyl)indolin-1-yl)-2-oxopyrazin-1(2H)-yl)butanoic acid] | 500 to 1000 |  |
| CC1(C)C(=O)N(c2cccn(CCCC(=O)O)c2=O)c2c(F)cc(Br)cc21 [Compound 1, 4-(3-(5-bromo-7-fluoro-3,3-dimethyl-2-oxoindolin-1-yl)-2-oxopyridin-1(2H)-yl)butanoic acid] | 1000 to 10000 |  |
